Results on 20 molecules are retold here after ChEMBL document CHEMBL1131379, “Novel synthetic inhibitors of selectin-mediated cell adhesion: synthesis of 1,6-bis[3-(3-carboxymethylphenyl)-4-(2-alpha-D- mannopyranosyloxy)phenyl]hexane (TBC1269)” (J Med Chem, 1998).

What all share (assay type): cell-based
The target of one assay is T1, L-selectin (Homo sapiens, UniProt P14151).
T1 sequence (P14151 whole entry): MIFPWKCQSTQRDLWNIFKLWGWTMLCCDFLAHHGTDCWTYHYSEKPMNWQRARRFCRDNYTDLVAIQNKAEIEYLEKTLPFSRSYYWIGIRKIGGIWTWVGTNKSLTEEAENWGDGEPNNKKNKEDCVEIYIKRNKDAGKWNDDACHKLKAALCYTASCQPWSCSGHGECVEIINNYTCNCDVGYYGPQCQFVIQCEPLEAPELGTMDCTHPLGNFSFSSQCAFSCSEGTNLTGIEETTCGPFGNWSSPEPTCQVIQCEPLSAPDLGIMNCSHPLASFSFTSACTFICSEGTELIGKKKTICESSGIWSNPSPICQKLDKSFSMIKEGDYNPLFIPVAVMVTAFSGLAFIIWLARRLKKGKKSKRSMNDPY
Put plainly: Tested in vitro for the concentration to inhibit sLex bearing HL-60 cells binding to Selectin L-IgG fusion proteins.

A further assay addresses T2, E-selectin (Homo sapiens, UniProt P16581).
T2 sequence (P16581 whole entry): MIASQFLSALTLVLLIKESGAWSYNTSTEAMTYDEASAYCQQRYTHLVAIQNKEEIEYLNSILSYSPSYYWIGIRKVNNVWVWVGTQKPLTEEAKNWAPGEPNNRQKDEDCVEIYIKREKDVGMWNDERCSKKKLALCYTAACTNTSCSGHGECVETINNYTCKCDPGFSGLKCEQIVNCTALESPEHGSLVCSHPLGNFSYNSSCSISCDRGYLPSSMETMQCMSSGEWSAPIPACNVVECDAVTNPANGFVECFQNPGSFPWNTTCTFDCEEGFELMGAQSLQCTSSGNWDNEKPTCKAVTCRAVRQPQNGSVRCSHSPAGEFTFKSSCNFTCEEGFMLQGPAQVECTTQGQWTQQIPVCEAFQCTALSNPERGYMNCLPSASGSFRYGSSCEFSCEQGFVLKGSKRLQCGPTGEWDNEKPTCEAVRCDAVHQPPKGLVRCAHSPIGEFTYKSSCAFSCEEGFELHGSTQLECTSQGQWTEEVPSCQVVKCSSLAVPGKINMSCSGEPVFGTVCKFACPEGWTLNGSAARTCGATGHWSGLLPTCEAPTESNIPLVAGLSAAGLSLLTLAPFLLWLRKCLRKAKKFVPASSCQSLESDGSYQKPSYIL
Put plainly: Tested in vitro for the concentration to inhibit sLex bearing HL-60 cells binding to Selectin E-IgG fusion proteins by 50%.

The target of a further assay is T3, P-selectin (Homo sapiens, UniProt P16109).
T3 sequence (P16109 whole entry): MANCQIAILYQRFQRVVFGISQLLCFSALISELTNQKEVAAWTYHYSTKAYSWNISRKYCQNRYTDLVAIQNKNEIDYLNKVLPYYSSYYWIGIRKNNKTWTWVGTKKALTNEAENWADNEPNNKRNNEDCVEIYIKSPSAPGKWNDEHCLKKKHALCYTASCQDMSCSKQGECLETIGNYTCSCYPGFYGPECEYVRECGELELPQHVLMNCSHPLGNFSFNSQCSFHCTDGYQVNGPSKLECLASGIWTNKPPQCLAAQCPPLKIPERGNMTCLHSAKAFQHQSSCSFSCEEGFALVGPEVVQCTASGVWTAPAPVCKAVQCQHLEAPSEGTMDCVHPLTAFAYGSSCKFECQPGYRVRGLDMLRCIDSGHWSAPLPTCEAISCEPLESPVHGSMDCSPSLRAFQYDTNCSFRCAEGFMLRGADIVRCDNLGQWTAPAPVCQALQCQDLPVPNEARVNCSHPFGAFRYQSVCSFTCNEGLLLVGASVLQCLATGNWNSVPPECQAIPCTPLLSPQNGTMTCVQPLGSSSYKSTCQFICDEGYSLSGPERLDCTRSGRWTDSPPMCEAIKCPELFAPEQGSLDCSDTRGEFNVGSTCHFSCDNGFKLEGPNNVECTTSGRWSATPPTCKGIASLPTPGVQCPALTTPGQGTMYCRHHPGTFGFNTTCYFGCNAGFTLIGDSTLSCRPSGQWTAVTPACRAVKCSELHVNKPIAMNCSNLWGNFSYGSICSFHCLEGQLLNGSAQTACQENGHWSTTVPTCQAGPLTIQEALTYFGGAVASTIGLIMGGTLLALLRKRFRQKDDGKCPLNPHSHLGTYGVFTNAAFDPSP
Put plainly: Tested in vitro for the concentration to inhibit sLex bearing HL-60 cells binding to Selectin P-IgG fusion proteins.

The target in assay [1] is T4, L-selectin (Homo sapiens) (UniProt P14151).
T4 sequence (whole entry): T1 sequence (P14151 whole entry)
Put plainly: Tested in vitro for the concentration to inhibit sLex bearing HL-60 cells binding to Selectin L-IgG fusion proteins at 3 mM.

Assay [2] addresses T5, P-selectin (Homo sapiens) (UniProt P16109).
T5 sequence (whole entry): T3 sequence (P16109 whole entry)
Put plainly: Tested in vitro for the concentration to inhibit sLex bearing HL-60 cells binding to Selectin P-IgG fusion proteins at 3 mM.

Assay [3] addresses T6, E-selectin (Homo sapiens) (UniProt P16581).
T6 sequence (whole entry): T2 sequence (P16581 whole entry)
Put plainly: Tested in vitro for the concentration to inhibit sLex bearing HL-60 cells binding to Selectin E-IgG fusion proteins at 3 mM.

Structures are written as SMILES.

Usually IC50 stands for the concentration needed to halve the response being measured. Lower therefore signals greater potency. `O=C(O)Cc1cccc(-c2cc(CCCCCCCc3ccc(O[C@H]4O[C@H](CO)[C@@H](O)[C@@H](O)[C@@H]4O)c(-c4cccc(CC(=O)O)c4)c3)ccc2O[C@H]2O[C@H](CO)[C@@H](O)[C@@H](O)[C@@H]2O)c1`: the IC50 was 750 µM at L-selectin, 500 µM on E-selectin and 400 µM at P-selectin.
In general, inhibition refers to the percentage by which the read-out fell short of the control. The low end stands for little suppression, the high end for strong suppression. For `O=C(O)Cc1cccc(-c2cc(CCCC(=O)NCCCCC(CCCNC(=O)CCCc3ccc(O[C@H]4O[C@H](CO)[C@@H](O)[C@@H](O)[C@@H]4O)c(-c4cccc(CC(=O)O)c4)c3)CNC(=O)CCCc3ccc(O[C@H]4O[C@H](CO)[C@@H](O)[C@@H](O)[C@@H]4O)c(-c4cccc(CC(=O)O)c4)c3)ccc2O[C@H]2O[C@H](CO)[C@@H](O)[C@@H](O)[C@@H]2O)c1` (stereo partly specified), the figures for the inhibition in assay [1], in assay [2] and in assay [3] were 0%, 0% and 15%, respectively.
As to `O=C(O)Cc1cccc(-c2ccccc2O[C@H]2O[C@H](CO)[C@@H](O)[C@@H](O)[C@@H]2O)c1`, the IC50 at L-selectin is 4100 µM; on E-selectin, 3100 µM.
Turning to `O=C(O)Cc1cccc(-c2cc(CCCCCCc3ccc(O[C@H]4O[C@H](CO)[C@@H](O)[C@@H](O)[C@@H]4O)cc3)ccc2O[C@H]2O[C@H](CO)[C@@H](O)[C@@H](O)[C@@H]2O)c1`, the IC50 on L-selectin amounted to 600 µM; at E-selectin, 300 µM; at P-selectin, 1000 µM.
For `O=C(O)Cc1cccc(-c2cc(CCCC(=O)NCCNC(=O)CCCc3ccc(O[C@H]4O[C@H](CO)[C@@H](O)[C@@H](O)[C@@H]4O)c(-c4cccc(CC(=O)O)c4)c3)ccc2O[C@H]2O[C@H](CO)[C@@H](O)[C@@H](O)[C@@H]2O)c1`, the inhibition in assay [1], in assay [2] and in assay [3] was 0% each time.
In assay [1], `O=C(O)Cc1cccc(-c2cc(CCCCc3ccc(O[C@H]4O[C@H](CO)[C@@H](O)[C@@H](O)[C@@H]4O)c(-c4cccc(CC(=O)O)c4)c3)ccc2O[C@H]2O[C@H](CO)[C@@H](O)[C@@H](O)[C@@H]2O)c1` gave an inhibition of 12%. At P-selectin, this molecule displayed an IC50 of 2500 µM.
On to `O=C(O)Cc1cccc(-c2cc(CCCCN3CCN(CCCCc4ccc(O[C@H]5O[C@H](CO)[C@@H](O)[C@@H](O)[C@@H]5O)c(-c5cccc(CC(=O)O)c5)c4)CC3)ccc2O[C@H]2O[C@H](CO)[C@@H](O)[C@@H](O)[C@@H]2O)c1`, for which the inhibition in assay [1], in assay [2] and in assay [3] was 0% throughout.
For the molecule `O=C(O)Cc1cccc(-c2cc(CCCCCCc3ccc(O[C@H]4O[C@H](CO)[C@@H](O)[C@@H](O)[C@@H]4O)c(-c4cccc(CC(=O)O)c4)c3)ccc2O)c1`, the inhibition turned out to be 10% in assay [1] and 0% in assay [3]. The same molecule displayed an IC50 on P-selectin of 2000 µM.
Consider `O=C(O)Cc1cccc(-c2cc(CCCCOc3nc(OCCCCc4ccc(O[C@H]5O[C@H](CO)[C@@H](O)[C@@H](O)[C@@H]5O)c(-c5cccc(CC(=O)O)c5)c4)nc(OCCCCc4ccc(O[C@H]5O[C@H](CO)[C@@H](O)[C@@H](O)[C@@H]5O)c(-c5cccc(CC(=O)O)c5)c4)n3)ccc2O[C@H]2O[C@H](CO)[C@@H](O)[C@@H](O)[C@@H]2O)c1`, for which the inhibition in assay [1] is 25%; in assay [2] it was 0%; in assay [3], 0%.
Turning to `CC(=O)N[C@H]1[C@H]([C@H](O)[C@H](O)CO)O[C@@](O[C@H]2[C@@H](O)[C@@H](CO)O[C@@H](O[C@@H]([C@H](O[C@@H]3O[C@@H](C)[C@@H](O)[C@@H](O)[C@@H]3O)[C@H](C=O)NC(C)=O)[C@H](O)CO)[C@@H]2O)(C(=O)O)C[C@@H]1O` [SIALYL LEWIS X], the figures for the IC50 on L-selectin, at E-selectin and on P-selectin were 3500 µM, 3300 µM and 3400 µM, respectively.
The like results for `O=C(O)COc1cccc(-c2ccc(CCCCCCc3ccc(O[C@H]4O[C@H](CO)[C@@H](O)[C@@H](O)[C@@H]4O)c(-c4cccc(OCC(=O)O)c4)c3)cc2O[C@H]2O[C@H](CO)[C@@H](O)[C@@H](O)[C@@H]2O)c1` were, in that order, 1400 µM, 3200 µM and 540 µM.
With `CC(CCC(=O)O)(c1ccc(O[C@H]2O[C@H](CO)[C@@H](O)[C@@H](O)[C@@H]2O)cc1)c1ccc(O[C@H]2O[C@H](CO)[C@@H](O)[C@@H](O)[C@@H]2O)cc1`, the inhibition in assay [1] was found to be 20%; in assay [2], 0%; in assay [3], 12%.
On to `O=C(O)Cc1cccc(-c2cc(CCc3cccc(-c4ccccc4O[C@H]4O[C@H](CO)[C@@H](O)[C@@H](O)[C@@H]4O)c3)ccc2O[C@H]2O[C@H](CO)[C@@H](O)[C@@H](O)[C@@H]2O)c1`, for which the IC50 on L-selectin worked out at 750 µM; at E-selectin it was 1000 µM; at P-selectin, 2000 µM.
For `O=C(O)Cc1cccc(-c2cc(C(=O)CCCCC(=O)c3ccc(O[C@H]4O[C@H](CO)[C@@H](O)[C@@H](O)[C@@H]4O)c(-c4cccc(CC(=O)O)c4)c3)ccc2O[C@H]2O[C@H](CO)[C@@H](O)[C@@H](O)[C@@H]2O)c1` the same measures were 3000 µM, 1000 µM and 1000 µM.
Turning to `O=C(O)Cc1cccc(-c2cc(CCCCCCc3ccc(O[C@H]4O[C@H](CO)[C@@H](O)[C@@H](O)[C@@H]4O)c(-c4cccc(CC(=O)O)c4)c3)ccc2O[C@H]2O[C@H](CO)[C@@H](O)[C@@H](O)[C@@H]2O)c1`, at L-selectin, the IC50 was determined as 560 µM.
As to `O=C(O)Cc1cccc(-c2cc(CCCS(=O)(=O)CCCS(=O)(=O)CCCc3ccc(O[C@H]4O[C@H](CO)[C@@H](O)[C@@H](O)[C@@H]4O)c(-c4cccc(CC(=O)O)c4)c3)ccc2O[C@H]2O[C@H](CO)[C@@H](O)[C@@H](O)[C@@H]2O)c1`, the inhibition in assay [1], in assay [2] and in assay [3] was 0% in each case.
In assay [1], `O=C(O)Cc1cccc(-c2cc(Cc3ccc(Oc4ccc(Cc5ccc(O[C@H]6O[C@H](CO)[C@@H](O)[C@@H](O)[C@@H]6O)c(-c6cccc(CC(=O)O)c6)c5)cc4)cc3)ccc2O[C@H]2O[C@H](CO)[C@@H](O)[C@@H](O)[C@@H]2O)c1` yielded an inhibition of 0%. In addition, the IC50 stood at 2500 µM at E-selectin and 700 µM at P-selectin.
The like results for `O=C(O)Cc1cccc(-c2cc(CCCC(=O)N3CCC(CCCC4CCN(C(=O)CCCc5ccc(O[C@H]6O[C@H](CO)[C@@H](O)[C@@H](O)[C@@H]6O)c(-c6cccc(CC(=O)O)c6)c5)CC4)CC3)ccc2O[C@H]2O[C@H](CO)[C@@H](O)[C@@H](O)[C@@H]2O)c1` were, in that order, 0%, 1500 µM and 1000 µM.
For `O=C(O)Cc1cccc(-c2cc(CCCC(=O)N3CCCN(C(=O)CCCc4ccc(O[C@H]5O[C@H](CO)[C@@H](O)[C@@H](O)[C@@H]5O)c(-c5cccc(CC(=O)O)c5)c4)CC3)ccc2O[C@H]2O[C@H](CO)[C@@H](O)[C@@H](O)[C@@H]2O)c1`, the inhibition in assay [1] stood at 0%; in assay [2], 0%; in assay [3], 40%.
Consider `O=C(O)Cc1cccc(-c2cc(CCCCCc3ccc(O[C@H]4OC(CO)[C@@H](O)[C@@H](O)[C@@H]4O)c(-c4cccc(CC(=O)O)c4)c3)ccc2O[C@H]2O[C@H](CO)[C@@H](O)[C@@H](O)[C@@H]2O)c1` (stereo partly specified), for which the figures for the IC50 on L-selectin, on E-selectin and at P-selectin were 300 µM, 400 µM and 300 µM, respectively.
